These results are taken from paper PMC10671849, “Synthesis and Evaluation of Marine-Inspired Compounds Result in Hybrids with Antitrypanosomal and Antileishmanial Activities” (Marine Drugs, 2023).

A short description of data set [1]: Cytotoxicity MTT assay on PMA-differentiated THP-1 macrophages. Format: cell-based. The settings on record: human; PMA-differentiated THP-1 macrophages, 72 h, MTT; 100 to 12.5 µM tested; read-out: Cytotoxicity CC50 (µM) 95% CI, THP-1. On the procedure: A human leukemia cell line, THP-1 (ATCC® TIB-202™), was cultured in RPMI-1640 medium supplemented with 10% heat-inactivated fetal bovine serum (FBS), 2 mM L-glutamine, 100 IU/mL penicillin/streptomycin, and 20 mM HEPES. The cell line was maintained in a humidified incubator at 37 °C and 5% CO2 by subculture every 3 days in 20 mL of media at a concentration of 2 × 10^5/mL in a T75 flask. All cell culture reagents were purchased from Lonza-Bioscience (Morrisville, NC, USA).
The cytotoxicity effect of compounds on THP-1-derived macrophages was assessed by colorimetric MTT assay (3-(4,5-dimethylthiazol-2-yl)-2,5-diphenyl tetrazolium bromide). Briefly, THP-1 cells were suspended in RPMI complete medium at a density of 1 × 10^6 cells/mL and 100 μL/well and were seeded in a 96-well plate and differentiated into macrophages by addition of 40 ng/mL of phorbol-myristate 13-acetate (PMA, Sigma, Saint Louis, MI, USA) for 24 h, followed by replacement with fresh medium for 24 more h. Subsequently, the cells were incubated with 100 μL of compounds ranging from 100 to 12.5 μM after dilution in the RPMI complete medium. Each condition was carried out in quadruplicate. After 72 h of incubation at 37 °C and 5% CO2, the medium was removed, and 200 μL of 0.5 mg/mL MTT solution diluted in RPMI was added. The plates were incubated for an additional 4 h. Then, 160 μL of media was removed, and the same volume of 2-propanol was added. Absorbance was read at 570 nm using a Synergy 2 Multi-Mode Reader (Biotek, Winooski, VT, USA). Cytotoxicity was evaluated by the determination of the CC50 value (drug concentration that reduced the percentage of viable cells by 50%) and calculated by non-linear regression analysis using GraphPad Prism software, version 8.1.1 for Windows (GraphPad Software, San Diego, CA, USA). The results represent the average of at least three independent experiments. For each compound, the selectivity index (SI) was calculated as the ratio between cytotoxicity in THP-1 (CC50, 72 h) and activity against parasites (IC50, 72 h).

Data set [2] concerns Candida albicans ATCC 10231. The data set can be described thus: Antifungal broth microdilution (CLSI M27-A3), MIC/MLC. The settings on record: for MIC: Candida albicans, ATCC10231, broth microdilution, 16 to 512 µg/mL, 48 h at 36 °C. Format: cell-based. As for the experimental part:
All tested compounds (9a–9d, 10a–10c, 13, 14, and eugenol (1)) were prepared in DMSO (Sigma-Aldrich, St. Louis, MO, USA) at a concentration of 10 mg/mL. The reference drugs used (voriconazole (Sigma-Aldrich, St. Louis, MO, USA) for fungi and quality control; gentamicin (Sigma-Aldrich, St. Louis, MO, USA) for bacterial and quality control) were prepared at 6.4 mg/mL. The stock solutions of the compounds were stored at –20 °C until immediately before the assays and then were diluted in fresh culture medium, RPMI-1640 medium (Biochrom AG, Berlin, Germany) buffered with 3-(N-morpholino)propanesulfonic acid (MOPS—Sigma-Aldrich, St. Louis, MO, USA) for fungi and cation-adjusted Mueller–Hinton broth (MHBII—Becton Dickinson, France) for bacteria, henceforth referred to as RPMI and MHB, respectively.
Fungal strains, including reference strains and clinical isolates, were used for the study of the antifungal activity: a yeast reference strain from American Type Culture Collection (ATCC), Candida albicans ATCC 10231; filamentous fungi reference strain Aspergillus fumigatus ATCC 240305; and a clinical isolate of dermatophytes Trichophyton rubrum FF5. Candida krusei ATCC 6258 was used as a quality control. All fungal strains were stored in Sabouraud dextrose broth (SDB—Bio-Mèrieux, Marcy L’Etoile, France) with glycerol (20%) at −80 °C and were subcultured in Sabouraud dextrose agar (SDA—Bio-Mèrieux, Marcy L’Etoile, France) for 24–72 h (yeasts and A. fumigatus) or 5–7 days (T. rubrum) before each assay to obtain optimal growth and purity conditions. Two bacteria strains were used, one Gram positive and one Gram negative: Staphylococcus aureus ATCC 25923 and Escherichia coli ATCC 25922, respectively. The bacterial strains were stored in trypticase soy broth (TSB—Biolife, Milan, Italy) with glycerol (10%) at −80 °C and subcultured in Mueller–Hinton agar (MHA—Bio-Mèrieux, Marcy L’Etoile, France) for 24 h before each assay.
For the purpose of quantitatively measuring the antifungal activity in vitro, a broth microdilution method was used to determine the MICs using the CLSI reference protocols M27-A3 [27] for yeasts and M38-A2 [28] for filamentous fungi. In short, two-fold serial dilutions of each stock solution were prepared using RPMI medium (pH 7) to obtain a range of test concentrations from 16 to 512 μg/mL. The yeasts or spore suspensions were prepared from 24 to 72-h cultures (yeasts and Aspergillus) or from 5–7 days of cultures (dermatophyte) in saline solution (with a drop of Tween 20 for the filamentous fungi). The transmittance of the cell density of yeasts was adjusted to 0.5 McFarland standard, and for filamentous fungi, the spores were counted using a Neubauer camera. Dilutions were performed using RPMI to obtain cell final concentrations in the plate of 0.5–2.5 × 10^3 colony forming units (CFU)/mL for yeasts, 0.4–5 × 10^4 CFU/mL for Aspergillus, and 1–3 × 10^3 CFU/mL for dermatophytes. Plates with the prepared serial dilutions of the tested compounds were inoculated with the same volume of the fungal suspension, and sterility (wells with only culture medium), growth (wells with cell suspensions in culture medium), and DMSO controls (wells with cell suspensions in culture medium containing 1% DMSO) were included in each assay. […] For the tested compounds, MIC values were considered the minimum concentration that inhibited the yeast growth by 100% compared to the growth control. The reference drug, voriconazole, was tested against C. krusei ATCC 6258 as a quality control, and the results were within the limits of CLSI reference documents.
After MIC readings, 10 μL of suspension were collected from wells corresponding to the MIC and the highest concentration following the MIC and were deposited in SDA plates. The plates were incubated following the conditions previously mentioned for the MIC evaluation, and the MLC was determined as the lowest concentration at which no fungal growth is observed.

Converted amounts (≈) assume the structure as drawn. Bounds are passed on as bounds.

What is called CC50 is the concentration at which the toxic effect on the cells reaches its halfway point. The term MIC denotes the least concentration at which growth counts as inhibited. Low values mean greater potency, high ones weaker potency. For the compound `C=CCc1cc(Cn2cc(C(=O)Nc3ccccc3C(N)=O)nn2)c(O)c(OC)c1` [9a, 1-(5-allyl-2-hydroxy-3-methoxybenzyl)-N-(2-carbamoylphenyl)-1H-1,2,3-triazole-4-carboxamide], the CC50 at 72 h in data set [1] was more than 100 µM. The same compound yielded a minimum inhibitory concentration (MIC) in data set [2] of more than 512 µg/mL.
For `C=CCc1cc(Cn2cc(C(=O)Nc3ccc(OC)cc3C(N)=O)nn2)c(O)c(OC)c1` [9b, 1-(5-allyl-2-hydroxy-3-methoxybenzyl)-N-(2-carbamoyl-4-methoxyphenyl)-1H-1,2,3-triazole-4-carboxamide] the same measures were more than 100 µM and more than 512 µg/mL.
For `C=CCc1cc(Cn2cc(C(=O)Nc3ccc(F)cc3C(N)=O)nn2)c(O)c(OC)c1` [9c, 1-(5-allyl-2-hydroxy-3-methoxybenzyl)-N-(2-carbamoyl-4-fluorophenyl)-1H-1,2,3-triazole-4-carboxamide], the 50% cytotoxic concentration (CC50) at 72 h in data set [1] came to 45.8 µM. The same compound yielded an MIC in data set [2] of more than 512 µg/mL.
For the compound `C=CCc1cc(Cn2cc(C(=O)Nc3ccc(Cl)cc3C(N)=O)nn2)c(O)c(OC)c1` [9d, 1-(5-allyl-2-hydroxy-3-methoxybenzyl)-N-(2-carbamoyl-4-chlorophenyl)-1H-1,2,3-triazole-4-carboxamide], the cytotoxic concentration (CC50) at 72 h in data set [1] is more than 100 µM. The compound further yielded an MIC in data set [2] of more than 512 µg/mL.
For `C=CCc1cc(Cn2cc(-c3nc4ccccc4c(=O)[nH]3)nn2)c(O)c(OC)c1` [10a, 2-(1-(5-allyl-2-hydroxy-3-methoxybenzyl)-1H-1,2,3-triazol-4-yl)quinazolin-4(3H)-one] the same measures were more than 100 µM and more than 512 µg/mL.
For `C=CCc1cc(Cn2cc(-c3nc4ccc(OC)cc4c(=O)[nH]3)nn2)c(O)c(OC)c1` [10b, 2-(1-(5-allyl-2-hydroxy-3-methoxybenzyl)-1H-1,2,3-triazol-4-yl)-6-methoxyquinazolin-4(3H)-one] the same measures were more than 100 µM and more than 512 µg/mL.
As to `C=CCc1cc(Cn2cc(-c3nc4ccc(F)cc4c(=O)[nH]3)nn2)c(O)c(OC)c1` [10c, 2-(1-(5-allyl-2-hydroxy-3-methoxybenzyl)-1H-1,2,3-triazol-4-yl)-6-fluoroquinazolin-4(3H)-one], in data set [1], the cytotoxic concentration (CC50) at 72 h is more than 100 µM. Also, the minimal inhibitory concentration (MIC) in data set [2] is more than 512 µg/mL.
With `C=CCc1ccc(O)c(OC)c1` [Eugenol, eugenol, reference compound], in data set [1], the CC50 at 72 h was more than 100 µM. Besides, the MIC in data set [2] is 512 µg/mL (≈ 3120 µM). The “MLC C. albicans” value in data set [2] (minimum lethal concentration, subculture on SDA after MIC reading) is given as more than 512 µg/mL.
Regarding `C=CCc1ccc(OCc2cn(CC(=O)Nc3ccccc3C(=O)O)nn2)c(OC)c1` [compound 13, 2-(2-(4-((4-allyl-2-methoxyphenoxy)methyl)-1H-1,2,3-triazol-1-yl)acetamido) benzoic acid], in data set [1], the cytotoxic concentration (CC50) at 72 h is more than 100 µM. In addition, the minimum inhibitory concentration (MIC) in data set [2] was more than 512 µg/mL.
For `C=CCc1cc(Cn2cc(-c3nc4ccccc4c(=O)o3)nn2)c(O)c(OC)c1` [compound 14, 2-(1-(5-allyl-2-hydroxy-3-methoxybenzyl)-1H-1,2,3-triazol-4-yl)-4H-benzo[d][1,3]oxazin-4-one] the same measures were more than 100 µM and more than 512 µg/mL.
